One compound from publication PMC2806030, “Inhibition of mammalian S6 kinase by resveratrol suppresses autophagy” (Aging (Albany NY), 2009) can be followed below.

Common to all, as to test: biochemical
Common to all, as to set-up: Upstate KinaseProfiler in vitro kinase activity assay, per cent of DMSO control
Holding throughout (details): read-out: Activity (% of Control)

One assay addresses T1, Abl(h) (Homo sapiens, UniProt P00519).
T1 construct: gene ABL1
In outline:
(§1)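 Profiling done with Upstate KinaseProfiler service across 100 kinases, resveratrol tested at 20 μM; activity expressed relative to control.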

In another assay the target is Fgr(h) (Homo sapiens, UniProt P09769). In outline:
as §1

The target in the next assay is T2, CDK5/p25(h) (Homo sapiens, UniProt Q00535).
T2 construct: p25
In outline: as §1

The target in the next assay is FGFR1(h) (Homo sapiens, UniProt P11362). The essentials:
as §1

Another assay has as its target NEK6(h) (Homo sapiens, UniProt Q9HC98). In outline: as §1
The target in a further assay is SGK2(h) (Homo sapiens, UniProt Q9HBY8). The essentials:
as §1

The target in the next assay is T3, PKA(h) (Homo sapiens, UniProt P17612).
T3 construct: gene PRKACA
In outline:
as §1

The target in another assay is CDK3/cyclinE(h) (Homo sapiens, UniProt Q00526). In outline: as §1
Another assay deals with T4, p70S6K(h) (Homo sapiens, UniProt P23443).
T4 construct: gene RPS6KB1
T4 sequence (P23443 whole entry): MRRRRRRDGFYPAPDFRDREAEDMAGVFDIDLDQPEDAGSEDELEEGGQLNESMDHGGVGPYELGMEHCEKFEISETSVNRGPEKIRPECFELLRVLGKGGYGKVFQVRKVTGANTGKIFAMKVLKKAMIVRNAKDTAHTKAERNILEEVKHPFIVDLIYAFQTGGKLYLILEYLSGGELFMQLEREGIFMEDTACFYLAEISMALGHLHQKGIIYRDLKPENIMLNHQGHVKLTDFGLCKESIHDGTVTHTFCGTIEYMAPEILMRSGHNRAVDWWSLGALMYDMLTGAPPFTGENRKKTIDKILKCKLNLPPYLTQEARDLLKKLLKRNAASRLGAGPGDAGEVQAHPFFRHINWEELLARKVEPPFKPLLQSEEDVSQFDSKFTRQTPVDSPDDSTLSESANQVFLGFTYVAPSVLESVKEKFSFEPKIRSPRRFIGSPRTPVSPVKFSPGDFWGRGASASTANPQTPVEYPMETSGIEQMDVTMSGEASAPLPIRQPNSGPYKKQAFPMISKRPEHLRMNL
The essentials:
as §1

The next assay concerns the target T5, PKD2(h) (Homo sapiens, UniProt Q9BZL6).
T5 construct: gene PRKD2
In outline: as §1

The next assay addresses T6, MST1(h) (Homo sapiens, UniProt Q13043).
T6 construct: gene STK4
In outline: as §1

The target of a further assay is NEK7(h) (Homo sapiens, UniProt Q8TDX7). The essentials: as §1
Another assay deals with T7, Abl(T315I)(h) (Homo sapiens, UniProt P00519, T315I).
T7 construct: gene ABL1
In outline:
as §1

Another assay concerns the target T8, LKB1(h) (Homo sapiens, UniProt Q15831).
T8 construct: gene STK11
The essentials: as §1

For the next assay, the target named is CDK1/cyclinB(h) (Homo sapiens, UniProt P06493). The essentials:
as §1

The next assay deals with T9, MSK1(h) (Homo sapiens, UniProt O75582).
T9 construct: gene RPS6KA5
T9 sequence (O75582 whole entry): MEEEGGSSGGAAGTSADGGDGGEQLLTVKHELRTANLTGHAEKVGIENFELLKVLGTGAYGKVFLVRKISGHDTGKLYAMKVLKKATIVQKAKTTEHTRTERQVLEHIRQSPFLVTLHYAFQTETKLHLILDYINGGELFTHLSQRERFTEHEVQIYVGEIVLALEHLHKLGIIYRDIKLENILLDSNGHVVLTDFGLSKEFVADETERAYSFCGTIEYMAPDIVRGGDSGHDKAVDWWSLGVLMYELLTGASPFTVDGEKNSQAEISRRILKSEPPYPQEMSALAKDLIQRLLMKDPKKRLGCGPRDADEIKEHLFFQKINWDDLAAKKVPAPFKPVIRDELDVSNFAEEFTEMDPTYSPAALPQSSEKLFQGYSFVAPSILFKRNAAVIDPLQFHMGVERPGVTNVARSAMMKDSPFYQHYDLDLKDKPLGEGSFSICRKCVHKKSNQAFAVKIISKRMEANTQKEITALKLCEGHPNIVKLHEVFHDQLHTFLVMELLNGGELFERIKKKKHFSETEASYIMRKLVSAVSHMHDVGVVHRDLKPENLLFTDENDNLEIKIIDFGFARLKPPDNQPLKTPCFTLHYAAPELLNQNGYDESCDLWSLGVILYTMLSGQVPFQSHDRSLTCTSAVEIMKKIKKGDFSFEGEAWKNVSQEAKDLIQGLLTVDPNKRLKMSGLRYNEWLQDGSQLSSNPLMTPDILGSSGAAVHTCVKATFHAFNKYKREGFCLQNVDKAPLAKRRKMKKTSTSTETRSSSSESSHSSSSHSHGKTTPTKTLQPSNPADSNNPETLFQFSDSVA
The essentials:
as §1

Another assay addresses DAPK2(h) (Homo sapiens, UniProt Q9UIK4). In outline: as §1
The target of the next assay is T10, PKCα(h) (Homo sapiens, UniProt P17252).
T10 construct: gene PRKCA
The essentials:
as §1

T5 sequence (Q9BZL6 whole entry): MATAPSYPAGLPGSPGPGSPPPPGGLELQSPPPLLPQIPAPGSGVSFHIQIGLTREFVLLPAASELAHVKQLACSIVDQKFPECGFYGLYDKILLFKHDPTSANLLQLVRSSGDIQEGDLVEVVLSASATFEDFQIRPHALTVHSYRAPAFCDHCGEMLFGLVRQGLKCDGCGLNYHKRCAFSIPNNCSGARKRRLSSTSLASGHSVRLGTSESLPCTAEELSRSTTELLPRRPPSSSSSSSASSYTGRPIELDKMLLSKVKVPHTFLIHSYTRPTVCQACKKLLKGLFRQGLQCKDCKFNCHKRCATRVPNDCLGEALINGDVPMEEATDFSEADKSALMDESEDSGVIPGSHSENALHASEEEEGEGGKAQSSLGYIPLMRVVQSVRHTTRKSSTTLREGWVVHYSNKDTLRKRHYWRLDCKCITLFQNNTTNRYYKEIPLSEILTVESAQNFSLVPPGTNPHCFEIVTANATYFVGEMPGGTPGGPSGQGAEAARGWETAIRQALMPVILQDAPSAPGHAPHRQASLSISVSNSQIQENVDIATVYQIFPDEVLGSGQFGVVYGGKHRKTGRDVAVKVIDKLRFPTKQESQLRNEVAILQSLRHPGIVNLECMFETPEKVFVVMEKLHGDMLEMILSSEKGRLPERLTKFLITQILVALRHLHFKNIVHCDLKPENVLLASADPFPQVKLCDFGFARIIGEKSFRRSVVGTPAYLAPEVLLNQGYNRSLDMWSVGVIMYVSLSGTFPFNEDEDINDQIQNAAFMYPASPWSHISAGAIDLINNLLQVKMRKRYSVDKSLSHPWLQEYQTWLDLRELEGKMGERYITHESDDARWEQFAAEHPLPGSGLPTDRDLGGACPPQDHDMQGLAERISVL
Chain of CDK1/cyclinB(h) (P06493 whole entry): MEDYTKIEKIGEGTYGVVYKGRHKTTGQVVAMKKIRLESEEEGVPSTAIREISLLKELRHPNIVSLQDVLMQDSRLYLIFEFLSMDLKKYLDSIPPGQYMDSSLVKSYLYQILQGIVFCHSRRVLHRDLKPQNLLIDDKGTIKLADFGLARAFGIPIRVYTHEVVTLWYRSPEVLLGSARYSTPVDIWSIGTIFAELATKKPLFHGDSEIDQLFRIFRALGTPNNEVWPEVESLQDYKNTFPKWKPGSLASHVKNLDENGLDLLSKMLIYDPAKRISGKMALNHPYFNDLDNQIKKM
Chain of CDK1/cyclinB(h) (P14635 whole entry partner): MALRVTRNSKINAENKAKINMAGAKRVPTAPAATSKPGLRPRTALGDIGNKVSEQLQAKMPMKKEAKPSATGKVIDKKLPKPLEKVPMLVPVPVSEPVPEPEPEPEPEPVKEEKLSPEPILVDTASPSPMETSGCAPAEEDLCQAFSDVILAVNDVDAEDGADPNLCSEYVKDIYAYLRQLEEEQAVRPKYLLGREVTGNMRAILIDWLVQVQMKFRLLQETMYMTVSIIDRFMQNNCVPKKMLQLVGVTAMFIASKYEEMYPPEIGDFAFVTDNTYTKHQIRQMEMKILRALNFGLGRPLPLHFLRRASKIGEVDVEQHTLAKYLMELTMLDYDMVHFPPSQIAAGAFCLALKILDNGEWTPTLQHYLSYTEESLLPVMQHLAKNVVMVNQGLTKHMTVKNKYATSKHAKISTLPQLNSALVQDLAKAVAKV
Chain of FGFR1(h) (P11362 whole entry): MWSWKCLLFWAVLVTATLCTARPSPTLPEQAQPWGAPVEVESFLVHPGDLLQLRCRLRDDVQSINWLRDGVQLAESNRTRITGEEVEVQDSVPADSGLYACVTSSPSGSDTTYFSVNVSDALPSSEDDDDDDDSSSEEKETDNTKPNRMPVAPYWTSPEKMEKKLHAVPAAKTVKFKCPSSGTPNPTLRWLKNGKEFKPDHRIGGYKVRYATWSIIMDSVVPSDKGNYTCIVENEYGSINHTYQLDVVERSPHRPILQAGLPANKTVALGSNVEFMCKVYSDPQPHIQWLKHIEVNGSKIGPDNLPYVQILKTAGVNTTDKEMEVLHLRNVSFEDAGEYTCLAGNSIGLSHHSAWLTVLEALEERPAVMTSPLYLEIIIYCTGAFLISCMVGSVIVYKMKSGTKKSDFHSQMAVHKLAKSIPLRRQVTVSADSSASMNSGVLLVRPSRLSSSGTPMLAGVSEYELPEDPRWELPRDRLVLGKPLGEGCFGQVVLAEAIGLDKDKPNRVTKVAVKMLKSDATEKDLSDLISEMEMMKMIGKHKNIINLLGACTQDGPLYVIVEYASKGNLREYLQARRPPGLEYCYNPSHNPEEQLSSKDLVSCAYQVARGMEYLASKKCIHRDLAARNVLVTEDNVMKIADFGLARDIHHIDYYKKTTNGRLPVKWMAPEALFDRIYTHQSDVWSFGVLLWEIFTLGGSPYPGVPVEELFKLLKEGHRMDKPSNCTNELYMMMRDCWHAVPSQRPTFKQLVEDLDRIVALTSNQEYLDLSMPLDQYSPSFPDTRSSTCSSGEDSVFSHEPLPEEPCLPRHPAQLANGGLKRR
Chain of NEK6(h) (Q9HC98 whole entry): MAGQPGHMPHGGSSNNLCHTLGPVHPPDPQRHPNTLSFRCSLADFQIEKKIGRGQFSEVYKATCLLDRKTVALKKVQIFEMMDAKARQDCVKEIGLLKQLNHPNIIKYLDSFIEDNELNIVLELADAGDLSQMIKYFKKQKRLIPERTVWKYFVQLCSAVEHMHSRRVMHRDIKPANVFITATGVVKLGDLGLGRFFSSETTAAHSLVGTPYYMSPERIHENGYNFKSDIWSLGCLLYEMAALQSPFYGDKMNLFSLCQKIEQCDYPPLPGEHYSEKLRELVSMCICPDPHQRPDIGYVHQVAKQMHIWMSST

Regarding `Oc1ccc(/C=C/c2cc(O)cc(O)c2)cc1` [Res, resveratrol], the remaining activity at 20 µM on Abl(h) was 105 ± 7%; at Fgr(h), 78 ± 5%; at CDK5/p25(h), 64 ± 4%; at FGFR1(h), 58 ± 2%; on NEK6(h) it was 140 ± 16%; at SGK2(h), 70 ± 1%. Further, the remaining activity at 20 µM amounted to 100% at PKA(h); 75 ± 4% on CDK3/cyclinE(h); 21 ± 1% at p70S6K(h); 88 ± 5% on PKD2(h); 75 ± 6% on MST1(h); 116 ± 2% at NEK7(h). Also, the remaining activity at 20 µM at Abl(T315I)(h) stood at 100 ± 2%; at LKB1(h), 102 ± 3%; on CDK1/cyclinB(h) it was 67 ± 3%; on MSK1(h), 58 ± 1%; at DAPK2(h) it was 67 ± 7%; on PKCα(h) it was 114 ± 9%.
